Assay results published in US20040019070A1, “Pyrrole-condensed morphinoid derivatives” (priority 2000, published 2004).

Tests used:
[1] = biological target: T1, human delta opioid receptor (Homo sapiens, UniProt P41143); experiment: radioligand binding assay, [3H]-DADLE, cloned human delta opioid receptor in CHO cells
T1 construct: expressed in transfected cells; membranes prepared
Experimental: The activity of the compounds of the present invention as selective delta ligands is determined in radioligand binding assays as described below.
(§1) The activity of the compounds of the present invention as selective delta ligands is determined in radioligand binding assays using cloned human delta, mu and kappa opioid receptors stably expressed in cell lines as described below.
(§2) CHO cells were subjected to stable transfection with cDNA encoding the human delta and mu opioid receptors. Clones were grown in suspension culture in serum free media. Selection was performed by growth in the absence of nucleotides.
(§3) Membranes were prepared as previously described (J. Med. Chem. 1997, 40, 3192 ). The binding of the preferential delta ligand [^3H]-[D-Ala^2,D-Leu^5]-enkephalin (DADLE) was evaluated at its KD concentration (0.7 nM). The binding of the mu ligand [^3H]-DAMGO (Eur. J. Pharmacol., 1989, 166, 213) and of the kappa ligand [^3H]-U69593 (Excerpta Medica, 1990, 211) were carried out at 0.5 nM. Non specific binding was determined in the presence of 10 uM of naloxone. Binding data were expressed as percentage of inhibition and fitted the following equation: f(x)=100·X/(IC50+X) where X is the cold drug concentration value. The IC50 values obtained were used to calculate the inhibitory constants (Ki) accordingly to the Cheng and Prusoff relation (Biochem. Pharmacol., 1973, 22, 3099).

[2] = biological target: T2, human mu opioid receptor (Homo sapiens, UniProt P35372); experiment: radioligand binding assay, [3H]-DAMGO, cloned human mu opioid receptor in CHO cells; settings: ratio of Ki at mu ([3H]-DAMGO 0.5 nM) to Ki at delta
T2 construct: expressed in transfected cells; membranes prepared
Experimental: as §1, §2, §3

T2 sequence (P35372 whole entry): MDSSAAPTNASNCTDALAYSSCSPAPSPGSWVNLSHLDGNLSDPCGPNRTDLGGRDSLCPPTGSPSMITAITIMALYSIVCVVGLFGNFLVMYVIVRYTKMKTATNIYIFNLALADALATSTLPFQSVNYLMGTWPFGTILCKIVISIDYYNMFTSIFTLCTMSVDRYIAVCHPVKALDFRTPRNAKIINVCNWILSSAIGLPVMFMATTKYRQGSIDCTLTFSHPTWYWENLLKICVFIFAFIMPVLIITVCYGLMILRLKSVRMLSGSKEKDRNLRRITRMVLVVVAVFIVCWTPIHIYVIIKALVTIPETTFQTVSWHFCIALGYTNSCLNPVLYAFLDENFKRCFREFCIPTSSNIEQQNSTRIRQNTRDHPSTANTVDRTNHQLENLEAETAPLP
T1 sequence (P41143 whole entry): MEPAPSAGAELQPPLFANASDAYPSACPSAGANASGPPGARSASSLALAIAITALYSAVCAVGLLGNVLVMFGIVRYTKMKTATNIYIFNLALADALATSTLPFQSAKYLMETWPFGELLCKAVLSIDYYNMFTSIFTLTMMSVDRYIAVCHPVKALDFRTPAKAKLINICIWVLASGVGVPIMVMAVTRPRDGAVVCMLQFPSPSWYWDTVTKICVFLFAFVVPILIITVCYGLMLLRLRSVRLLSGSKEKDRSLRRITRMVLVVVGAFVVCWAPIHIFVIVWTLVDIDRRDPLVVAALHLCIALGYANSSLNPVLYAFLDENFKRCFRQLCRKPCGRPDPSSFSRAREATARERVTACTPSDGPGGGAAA

SMILES	Ki [1] [nM]	Ki mu/Ki delta [2]
COc1ccc2c3c1O[C@H]1c4[nH]c(C(=O)N5CCC(C(=O)c6ccccc6)CC5)c(C)c4C[C@H]4[C@@H](C2)N(C)CC[C@]314 [Example 6]	1.4	220
COc1ccc2c3c1O[C@H]1c4[nH]c(C(=O)N5C(C)(C)CCCC5(C)C)c(C)c4C[C@H]4[C@@H](C2)N(C)CC[C@]314 [Example 1]	0.3	267
